Test [1] deals with tumor necrosis factor-α (TNF-α). The test can be described thus: Sandwich ELISA quantification of TNF-α in supernatants of treated fibroblast-like synoviocytes. Type of test: cell-based, human. The following applies: fibroblast-like synoviocytes from patients with degenerative arthritis, 24 hours treatment, supernatant. The method, then: (§1) The fibroblast-like synoviocytes (FLS) from five patients with degenerative arthritis were collected and cultured. First, the joint synovium of the patients were cut into small pieces, suspended in a DMEM (Dulbecco modified eagle's medium) culture medium, and incubated under an environment of 37° C. and 5% CO2 for 3 days. The culture medium contains 1.5 g/L sodium bicarbonate (S6297, Sigma-Aldrich, St Louis, Mo., USA), 1% penicillin-streptomycin-neomycin (P408, Sigma-Aldrich), and 10% fetal bovine serum (04-001-1A, Biological Industries, Grand Island, N.Y., USA).
(§2) Non-attached cells were removed by a phosphate buffered saline solution (PBS), the culture medium was refreshed, and the attached cells were cultured for 2 weeks. After the above steps were repeated 3 to 6 times, the remaining cells were fibroblast-like synoviocytes. The obtained cells were then used for the following test.
(§3) The fibroblast-like synoviocytes obtained form Experiment A were cultured in a serum-free culture medium for 24 hours. Then, the fibroblast-like synoviocytes were separately cultured in the following four culture medium for 24 hours: (1) a DMEM culture medium comprising only 10% fetal bovine serum (as a control group); (2) a DMEM culture medium comprising 10% fetal bovine serum and hyaluronic acid (having an average molecular weight of 600 KDa to 800 KDa); (3) a DMEM culture medium comprising 10% fetal bovine serum and vitamin C, vitamin D, or vitamin E; and (4) a DMEM culture medium comprising 10% fetal bovine serum, hyaluronic acid (having an average molecular weight of 600 KDa to 800 KDa), and vitamin C, vitamin D or vitamin E. The concentrations of hyaluronic acid and vitamin in the above four culture mediums were the same as the above Preparation Example.
(§4) Then, the cells of the aforesaid four groups were collected and centrifuged, and the supernatants were collected for the following analysis.
(§5) In this experiment, the concentrations of two cytokines related to degenerative arthritis in the collected supernatants from Experiment B were determined by using a sandwich binding protein assay kit (or sandwich ELISA kits, purchased from the eBioscience company) based on the standard curves according to the manufacturer's manual to analyze the expression level of these cytokines and determine the inflammation level of the cells. […] Each sample was analyzed twice, and an enzyme-linked immunosorbent assay (ELISA) reader (Sunrise Remote, TECAN) was used to carry out the measurement.

The test system of a further test is Interleukin-1β (IL-1β). Briefly: Sandwich ELISA quantification of IL-1β in supernatants of treated fibroblast-like synoviocytes. The note with it: fibroblast-like synoviocytes from patients with degenerative arthritis, 24 hours treatment, supernatant. Type of test: cell-based, human. Here is the method:
as §1, §2, §3, §4, §5

The mark [2] stands for this setting: Table 1 (vitamin C experiment), control 95.57.
The mark [3] stands for this setting: Table 2 (vitamin D experiment), control 106.78.
The mark [4] stands for this setting: Table 3 (vitamin E experiment), control 98.09.
[5] abbreviates: Table 1 (vitamin C experiment), control 91.98.
Setting [6] is: Table 2 (vitamin D experiment), control 97.47.
Setting [7] is: Table 3 (vitamin E experiment), control 97.37.

Here are results for four compounds from patent US20150094279A1, “PHARMACEUTICAL COMPOSITION AND METHOD FOR INHIBITING INFLAMMATION” (CHINA MEDICAL UNIVERSITY, priority 2011, published 2015).

Take hyaluronic acid: the TNF-α average concentration was 75.64 pg/mL in test [1] (setting [2]), 82.52 pg/mL in test [1] (setting [3]) and 79.28 pg/mL in test [1] (setting [4]). In addition, the values for the IL-1β average concentration in the test with Interleukin-1β (IL-1β) (setting [5]), in the test with Interleukin-1β (IL-1β) (setting [6]) and in the test on Interleukin-1β (IL-1β) (setting [7]) were 78.79 pg/mL, 76.03 pg/mL and 78.33 pg/mL, respectively.
For the compound vitamin D, in test [1] (setting [3]), the TNF-α average concentration stood at 79.52 pg/mL. Further, the IL-1β average concentration in the test on Interleukin-1β (IL-1β) (setting [6]) is 74.78 pg/mL.
Compound vitamin E gave a TNF-α average concentration in test [1] (setting [4]) of 77.03 pg/mL. The same compound displayed an IL-1β average concentration in the test with Interleukin-1β (IL-1β) (setting [7]) of 75.57 pg/mL.
Regarding `O=C1O[C@H]([C@@H](O)CO)C(O)=C1O` [vitamin C], the TNF-α average concentration in test [1] (setting [2]) was 75.56 pg/mL. Moreover, the IL-1β average concentration in the test with Interleukin-1β (IL-1β) (setting [5]) is 77.00 pg/mL.
